Measured values: patent publication US9579314B2 (priority 2015, dated 2017)

How the values were obtained:
Human M3 receptor = Human M3 receptor (Homo sapiens, UniProt P20309); settings: read-out: M3 binding affinity
Human β2 adrenoceptor = Human β2 adrenoceptor (Homo sapiens, UniProt P07550); settings: read-out: B2 binding affinity
Chain of Human β2 adrenoceptor (P07550 whole entry): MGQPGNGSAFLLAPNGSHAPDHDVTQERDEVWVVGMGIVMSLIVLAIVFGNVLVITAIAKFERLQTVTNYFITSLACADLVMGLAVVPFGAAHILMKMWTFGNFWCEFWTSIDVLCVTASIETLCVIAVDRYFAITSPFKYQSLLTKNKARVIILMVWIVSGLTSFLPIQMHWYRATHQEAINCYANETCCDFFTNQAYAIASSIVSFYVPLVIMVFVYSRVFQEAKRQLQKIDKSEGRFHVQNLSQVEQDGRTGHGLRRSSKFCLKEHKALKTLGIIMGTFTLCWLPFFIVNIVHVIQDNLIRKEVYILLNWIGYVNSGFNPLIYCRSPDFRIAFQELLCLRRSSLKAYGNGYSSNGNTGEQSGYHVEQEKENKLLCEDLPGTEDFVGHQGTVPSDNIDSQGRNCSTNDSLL

Chain of Human M3 receptor (P20309 whole entry): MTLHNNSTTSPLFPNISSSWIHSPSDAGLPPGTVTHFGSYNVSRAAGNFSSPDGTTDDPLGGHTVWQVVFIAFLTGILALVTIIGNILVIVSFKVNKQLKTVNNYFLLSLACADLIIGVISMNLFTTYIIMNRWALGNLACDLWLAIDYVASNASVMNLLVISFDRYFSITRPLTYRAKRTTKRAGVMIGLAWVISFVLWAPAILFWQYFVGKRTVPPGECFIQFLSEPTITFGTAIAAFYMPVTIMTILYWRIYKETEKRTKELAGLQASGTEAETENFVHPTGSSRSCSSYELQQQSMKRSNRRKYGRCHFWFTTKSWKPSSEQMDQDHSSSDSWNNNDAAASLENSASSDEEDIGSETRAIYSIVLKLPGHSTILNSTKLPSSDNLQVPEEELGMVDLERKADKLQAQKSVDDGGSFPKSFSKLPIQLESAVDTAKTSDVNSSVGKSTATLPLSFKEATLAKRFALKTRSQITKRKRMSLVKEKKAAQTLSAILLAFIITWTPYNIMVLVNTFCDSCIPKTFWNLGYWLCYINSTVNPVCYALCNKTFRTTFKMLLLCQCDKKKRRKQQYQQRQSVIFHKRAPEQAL

| SMILES | IC50 (Human M3 receptor) [nM] | IC50 (Human β2 adrenoceptor) [nM] |
| --- | --- | --- |
| O=C(OCC1CCN(Cc2ccccc2)CC1)[C@@](O)(c1ccccc1)c1cccc(OCCCCCCNCC(O)c2ccc(O)c3[nH]c(=O)ccc23)c1 (stereo in doubt) [Compound 27, (R)-(1-benzylpiperidin-4-yl)methyl 2-hydroxy-2-(3-((6-(((R)-2-hydroxy-2-(8-hydroxy-2-oxo-1,2-dihydroquinolin-5-yl)ethyl)amino)hexyl)oxy)phenyl)-2-phenylacetate] | > 3 | 0.3 to 3 |
| O=C(OCC1CCN(Cc2ccccc2)CC1)[C@](O)(c1ccccc1)c1cccc(OCCCCCCNCC(O)c2ccc(O)c3[nH]c(=O)ccc23)c1 (stereo in doubt) [Compound 29, (S)-(1-benzylpiperidin-4-yl)methyl 2-hydroxy-2-(3-((6-(((R)-2-hydroxy-2-(8-hydroxy-2-oxo-1,2-dihydroquinolin-5-yl)ethyl)amino)hexyl)oxy)phenyl)-2-phenylacetate] | < 0.3 | < 0.3 |
| O=C(OCC1CCN(Cc2ccccc2)CC1)[C@](O)(c1ccccc1)c1cccc(OCCCCCCCCNCC(O)c2ccc(O)c3[nH]c(=O)ccc23)c1 (stereo in doubt) [Compound 30, (S)-(1-benzylpiperidin-4-yl)methyl 2-hydroxy-2-(3-((8-(((R)-2-hydroxy-2-(8-hydroxy-2-oxo-1,2-dihydroquinolin-5-yl)ethyl)amino)octyl)oxy)phenyl)-2-phenylacetate] | 0.3 to 3 | 0.3 to 3 |
| O=C(NCCc1cccc(C(O)(C(=O)OCC2CCN(Cc3ccccc3)CC2)c2ccccc2)c1)c1ccc(CNCC(O)c2ccc(O)c3[nH]c(=O)ccc23)cc1 (stereo in doubt) [Compound 39, (1-benzylpiperidin-4-yl)methyl 2-hydroxy-2-(3-(2-(4-((((R)-2-hydroxy-2-(8-hydroxy-2-oxo-1,2-dihydroquinolin-5-yl)ethyl)amino)methyl)benzamido)ethyl)phenyl)-2-phenylacetate] | 0.3 to 3 | < 0.3 |
| O=C(OCC1CCN(Cc2ccccc2)CC1)C(O)(c1ccccc1)c1cccc(OCCCCCNC[C@H](O)c2ccc(O)c3[nH]c(=O)ccc23)c1 (stereo partly drawn) [Compound 1, (1-Benzylpiperidin-4-yl)methyl 2-hydroxy-2-(3-((5-(((R)-2-hydroxy-2-(8-hydroxy-2-oxo-1,2-dihydroquinolin-5-yl)ethyl)amino)pentyl)oxy)phenyl)-2-phenylacetate] | 0.3 to 3 | < 0.3 |
| CN(C)CCOC(=O)[C@](O)(c1ccccc1)c1cccc(OCCCCCNC[C@H](O)c2ccc(O)c3[nH]c(=O)ccc23)c1 [Compound 17, (S)-2-(dimethylamino)ethyl 2-hydroxy-2-(3-((5-(((R)-2-hydroxy-2-(8-hydroxy-2-oxo-1,2-dihydroquinolin-5-yl)ethyl)amino)pentyl)oxy)phenyl)-2-phenylacetate] | – | 0.3 to 3 |
| CN(C)CCOC(=O)[C@@](O)(c1ccccc1)c1cccc(OCCCCCNC[C@H](O)c2ccc(O)c3[nH]c(=O)ccc23)c1 [Compound 18, (R)-2-(dimethylamino)ethyl 2-hydroxy-2-(3-((5-(((R)-2-hydroxy-2-(8-hydroxy-2-oxo-1,2-dihydroquinolin-5-yl)ethyl)amino)pentyl)oxy)phenyl)-2-phenylacetate] | – | < 0.3 |
| CN1CC[C@@H](OC(=O)[C@](O)(c2ccccc2)c2cccc(OCCCCCNC[C@H](O)c3ccc(O)c4[nH]c(=O)ccc34)c2)C1 [Compound 19] | – | < 0.3 |
| CN1CC[C@@H](OC(=O)[C@@](O)(c2ccccc2)c2cccc(OCCCCCNC[C@H](O)c3ccc(O)c4[nH]c(=O)ccc34)c2)C1 [Compound 20, (R)-(R)-1-methylpyrrolidin-3-yl 2-hydroxy-2-(3-((5-(((R)-2-hydroxy-2-(8-hydroxy-2-oxo-1,2-dihydroquinolin-5-yl)ethyl)amino)pentyl)oxy)phenyl)-2-phenylacetate] | – | < 0.3 |
| CN1CCC(OC(=O)[C@](O)(c2ccccc2)c2cccc(OCCCCCNC[C@H](O)c3ccc(O)c4[nH]c(=O)ccc34)c2)CC1 [Compound 21, (S)-1-methylpiperidin-4-yl 2-hydroxy-2-(3-((5-(((R)-2-hydroxy-2-(8-hydroxy-2-oxo-1,2-dihydroquinolin-5-yl)ethyl)amino)pentyl)oxy)phenyl)-2-phenylacetate] | – | < 0.3 |
| CN1CCC(OC(=O)[C@@](O)(c2ccccc2)c2cccc(OCCCCCNC[C@H](O)c3ccc(O)c4[nH]c(=O)ccc34)c2)CC1 [Compound 22, (R)-1-methylpiperidin-4-yl 2-hydroxy-2-(3-((5-(((R)-2-hydroxy-2-(8-hydroxy-2-oxo-1,2-dihydroquinolin-5-yl)ethyl)amino)pentyl)oxy)phenyl)-2-phenylacetate] | – | < 0.3 |
| CN1CCC[C@@H](OC(=O)[C@](O)(c2ccccc2)c2cccc(OCCCCCNC[C@H](O)c3ccc(O)c4[nH]c(=O)ccc34)c2)C1 [Compound 25] | – | < 0.3 |
| CN1CC(OC(=O)[C@](O)(c2ccccc2)c2cccc(OCCCCCNC[C@H](O)c3ccc(O)c4[nH]c(=O)ccc34)c2)C1 [Compound 26, (S)-1-methylazetidin-3-yl 2-hydroxy-2-(3-((5-(((R)-2-hydroxy-2-(8-hydroxy-2-oxo-1,2-dihydroquinolin-5-yl)ethyl)amino)pentyl)oxy)phenyl)-2-phenylacetate] | – | < 0.3 |
| CN1CC[C@@H](OC(=O)C(O)(c2ccccc2)c2cccc(C(=O)NCCCCNC[C@H](O)c3ccc(O)c4[nH]c(=O)ccc34)c2)C1 (stereo partly drawn) [Compound 49, (R)-1-methylpyrrolidin-3-yl 2-hydroxy-2-(3-((4-(((R)-2-hydroxy-2-(8-hydroxy-2-oxo-1,2-dihydroquinolin-5-yl)ethyl)amino)butyl)carbamoyl)phenyl)-2-phenylacetate diformate] | – | < 0.3 |
| O=C(NCCCOc1cccc([C@](O)(C(=O)OC2CCN(Cc3ccccc3)CC2)c2ccccc2)c1)c1ccc(CNC[C@H](O)c2ccc(O)c3[nH]c(=O)ccc23)cc1 [Compound 158, 1-Benzylpiperidin-4-yl (S)-2-hydroxy-2-(3-(3-(4-((((R)-2-hydroxy-2-(8-hydroxy-2-oxo-1,2-dihydroquinolin-5-yl)ethyl)amino)methyl)benzamido)propoxy)phenyl)-2-phenylacetate] | – | < 0.3 |
| O=C(NCCCOc1cccc([C@](O)(C(=O)OC[C@@H]2CCN(Cc3ccccc3)C2)c2ccccc2)c1)c1ccc(CNC[C@H](O)c2ccc(O)c3[nH]c(=O)ccc23)cc1 [Compound 159, ((R)-1-benzylpyrrolidin-3-yl)methyl (S)-2-hydroxy-2-(3-(3-(4-((((R)-2-hydroxy-2-(8-hydroxy-2-oxo-1,2-dihydroquinolin-5-yl)ethyl)amino)methyl)benzamido)propoxy)phenyl)-2-phenylacetate] | – | < 0.3 |
| O=C(NCCCOc1cccc([C@](O)(C(=O)OC[C@H]2CCN(Cc3ccccc3)C2)c2ccccc2)c1)c1ccc(CNC[C@H](O)c2ccc(O)c3[nH]c(=O)ccc23)cc1 [Compound 160, ((S)-1-benzylpyrrolidin-3-yl)methyl (S)-2-hydroxy-2-(3-(3-(4-((((R)-2-hydroxy-2-(8-hydroxy-2-oxo-1,2-dihydroquinolin-5-yl)ethyl)amino)methyl)benzamido)propoxy)phenyl)-2-phenylacetate] | – | < 0.3 |
| O=C(NCCCOc1cccc([C@](O)(C(=O)O[C@@H]2CCN(Cc3ccccc3)C2)c2ccccc2)c1)c1ccc(CNC[C@H](O)c2ccc(O)c3[nH]c(=O)ccc23)cc1 [Compound 163, (R)-1-benzylpyrrolidin-3-yl (S)-2-hydroxy-2-(3-(3-(4-((((R)-2-hydroxy-2-(8-hydroxy-2-oxo-1,2-dihydroquinolin-5-yl)ethyl)amino)methyl)benzamido)propoxy)phenyl)-2-phenylacetate] | – | < 0.3 |
| O=C(NCCCOc1cccc([C@](O)(C(=O)O[C@H]2CCN(Cc3ccccc3)C2)c2ccccc2)c1)c1ccc(CNC[C@H](O)c2ccc(O)c3[nH]c(=O)ccc23)cc1 [Compound 164, (S)-1-benzylpyrrolidin-3-yl (S)-2-hydroxy-2-(3-(3-(4-((((R)-2-hydroxy-2-(8-hydroxy-2-oxo-1,2-dihydroquinolin-5-yl)ethyl)amino)methyl)benzamido)propoxy)phenyl)-2-phenylacetate] | – | 0.3 to 3 |
| O=C(NCCCOc1cccc([C@](O)(C(=O)OC2CN(Cc3ccccc3)C2)c2ccccc2)c1)c1ccc(CNC[C@H](O)c2ccc(O)c3[nH]c(=O)ccc23)cc1 [Compound 165, 1-benzylazetidin-3-yl (S)-2-hydroxy-2-(3-(3-(4-((((R)-2-hydroxy-2-(8-hydroxy-2-oxo-1,2-dihydroquinolin-5-yl)ethyl)amino)methyl)benzamido)propoxy)phenyl)-2-phenylacetate] | – | < 0.3 |
| O=C(NCc1ccc(COc2cccc([C@](O)(C(=O)OC3CCN(Cc4ccccc4)CC3)c3ccccc3)c2)cc1)Nc1ccc(CNC[C@H](O)c2ccc(O)c3[nH]c(=O)ccc23)cc1 [Compound 166, 1-Benzylpiperidin-4-yl (S)-2-hydroxy-2-(3-((4-((3-(4-((((R)-2-hydroxy-2-(8-hydroxy-2-oxo-1,2-dihydroquinolin-5-yl)ethyl)amino)methyl)phenyl)ureido)-methyl)benzyl)oxy)phenyl)-2-phenylacetate] | – | 0.3 to 3 |
| COc1cc(NC(=O)NCc2ccc(COc3cccc([C@](O)(C(=O)OC4CCN(Cc5ccccc5)CC4)c4ccccc4)c3)cc2)ccc1CNC[C@H](O)c1ccc(O)c2[nH]c(=O)ccc12 [Compound 167, 1-benzylpiperidin-4-yl (S)-2-hydroxy-2-(3-((4-((3-(4-((((R)-2-hydroxy-2-(8-hydroxy-2-oxo-1,2-dihydroquinolin-5-yl)ethyl)amino)methyl)-3-methoxyphenyl)ureido)methyl)benzyl)oxy)phenyl)-2-phenylacetate] | – | 0.3 to 3 |
| COc1cc(CNC[C@H](O)c2ccc(O)c3[nH]c(=O)ccc23)ccc1NC(=O)NCc1ccc(COc2cccc([C@](O)(C(=O)OC3CCN(Cc4ccccc4)CC3)c3ccccc3)c2)cc1 [Compound 168, 1-benzylpiperidin-4-yl (S)-2-hydroxy-2-(3-((4-((3-(4-((((R)-2-hydroxy-2-(8-hydroxy-2-oxo-1,2-dihydroquinolin-5-yl)ethyl)amino)methyl)-2-methoxyphenyl)ureido)methyl)benzyl)oxy)phenyl)-2-phenylacetate] | – | 0.3 to 3 |
